# Reference: patent US20060020022A1, “Enantioselective separation method” (PHARMACIA & UPJOHN COMPANY LLC, priority 2004, published 2006)
# Key:
# [1] = Photoracemization in ethanol in a quartz cuvette under a UV spot lamp, e.e. by enantioselective HPLC; assay type: physicochemical; conditions: for e.e. by HPLC after irradiation: 50-mg/mL in ethanol, start 21% e.e. of (S), 4 W/cm^2; for ln (e.e.): 66.7-mg/mL in ethanol
# Experimental: Using a column with 0.46 cm inner diameter and 250 mm length filled with […]® AD stationary phase, a 10 μL injection volume, by eluting at room temperature with mobile phase (volume proportions) 95%/5% heptane:ethanol with 0.1% trifluoroacetic acid, at room temperature, flow rate at 1 mL/minute isocratic, and detected with a photodiode array detector at 254 nm wavelength, and a run time of 10 minutes.
# A 1.0-mg/mL solution of (S)-6-chloro-7-tert-butyl-2-trifluoromethyl-2H-chromene-3-carboxylic acid in ethanol was placed in a quartz cuvette and irradiated with light from a UV spot lamp that produced a 5 mm diameter spot of UV light (320-390 nm wavelength) at 4 W/cm^2 intensity.
# The first aliquot was placed in a quartz cuvette and irradiated in 90-second intervals over 25 minutes with light from a UV spot lamp that produced a 5 mm diameter spot of UV light (320-390 nm wavelength) at 4 W/cm^2 intensity to give a solution with 7.4% e.e. by HPLC. The second aliquot was placed in a quartz cuvette and irradiated continuously over 25 minutes with light from the UV spot lamp to give a solution with 12% e.e. by HPLC.
# A 40-mg/mL solution of (S)-6-chloro-7-tert-butyl-2-trifluoromethyl-2H-chromene-3-carboxylic acid in ethanol was placed in a quartz cuvette and irradiated with light from a UV spot lamp that produced a 5 mm diameter spot of UV light (320-390 nm wavelength) at 4 W/cm^2 intensity. Aliquots were taken at time=0, 1, 2, 4, 8, 12, and 16 minutes and analyzed by HPLC. The experiment was repeated. A rate constant k for each of the two experiments (k1 and k2) was calculated using the following equation: [formula] wherein t is the time in minutes, C is the concentration of chromene in moles per liter, and ln (e.e.) is the natural logarithm of percent enantiomeric excess. The rate constant k1 was 0.0764/minute and k2 was 0.0787/minute. A half-live τ for each of the two experiments (τ1 and τ2) was calculated using the following equation: [formula] […] A specific half-life of about 30 minutes per gram of enantiomer was calculated.
# The procedure of Example (C) was repeated except the concentration of (S)-6-chloro-7-tert-butyl-2-trifluoromethyl-2H-chromene-3-carboxylic acid in ethanol was 66.7-mg/mL. Aliquots were taken at time=0, 1, 2, 4, 8, 12, and 16 minutes and analyzed by HPLC. The natural logarithm of e.e. at each time point was determined for each aliquot. […] The natural logarithm of e.e. data is provided below in Table 1 in the row labeled “ln (e.e.).”
# [2] = Photoracemization in ethanol in a 400-mL photoreactor with 450 W UV lamp, e.e. by enantioselective HPLC; assay type: physicochemical
# Experimental: The mixture was irradiated and aliquots were taken at about time=0, 12, 24, 41, 60, 87, 105, 135, and 162 minutes and analyzed by HPLC.
# The natural logarithm of e.e. at each time point was determined for each aliquot.
# Half-lives (minutes) and specific half-lives (minutes per gram) were calculated for each concentration.
# (§1) Using the procedure of Example (E), 10-g of (R)-8-ethyl-6-trifluoromethoxy-2-trifluoromethyl-2H-chromene-3-carboxylic acid was dissolved in 400 mL of ethanol to a concentration of 25-mg/mL, and the mixture was filtered to remove a small amount of insoluble material. The filtrate was placed in the photoreactor and irradiated.
# as §1, with “(R)-6,8-dimethyl-2-trifluoromethyl-2H-chromene-3-carboxylic” for “(R)-8-ethyl-6-trifluoromethoxy-2-trifluoromethyl-2H-chromene-3-carboxylic”
# [3] = 10-g in 400 mL ethanol, 25-mg/mL, t=5 minutes
smiles,measurement,setting,value
CC(C)(C)c1cc2c(cc1Cl)C=C(C(=O)O)C(C(F)(F)F)O2 [(S)- and (R)-6-chloro-7-tert-butyl-2-trifluoromethyl-2H-chromene-3-carboxylic acid],e.e. by HPLC after irradiation,[1]; irradiated continuously over 25 minutes,12%
same,e.e. by HPLC after irradiation,[1]; irradiated in 90-second intervals over 25 minutes,7.4%
CC(C)(C)c1cc2c(cc1Cl)C=C(C(=O)O)[C@@H](C(F)(F)F)O2 [(S)-6-chloro-7-tert-butyl-2-trifluoromethyl-2H-chromene-3-carboxylic acid],HPLC finding after UV irradiation,"[1]; 1.0-mg/mL in ethanol, UV 320-390 nm at 4 W/cm^2, after 30 minutes",racemic mixture
same,rate constant k1,"[1]; 40-mg/mL in ethanol, first experiment",0.0764 min⁻¹
same,rate constant k2,"[1]; 40-mg/mL in ethanol, repeated experiment",0.0787 min⁻¹
same,ln (e.e.),[1]; time 0 minutes,4.4
same,ln (e.e.),[1]; time 1 minute,4.3
same,ln (e.e.),[1]; time 2 minutes,4.2
same,ln (e.e.),[1]; time 4 minutes,4.0
same,ln (e.e.),[1]; time 8 minutes,3.8
same,ln (e.e.),[1]; time 12 minutes,3.4
same,ln (e.e.),[1]; time 16 minutes,3.3
CC(C)(C)c1cc2c(cc1Cl)C=C(C(=O)O)[C@H](C(F)(F)F)O2 [(R)-6-chloro-7-tert-butyl-2-trifluoromethyl-2H-chromene-3-carboxylic acid],τ,"[2]; 4.00 g enantiomer, 10.0 mg/mL in ethanol",9.08 min
same,τ,"[2]; 8.00 g enantiomer, 20.0 mg/mL in ethanol",16.38 min
same,τ,"[2]; 10.00 g enantiomer, 25.00 mg/mL in ethanol",19.68 min
same,τ,"[2]; 13.00 g enantiomer, 32.5 mg/mL in ethanol",22.57 min
same,τ,"[2]; 16.00 g enantiomer, 40.0 mg/mL in ethanol, from Example (E)",31.65 min
same,rate constant k,"[2]; 16 g in 400 mL ethanol, 40-g/L",0.0109 min⁻¹
same,τ,"[2]; 20.04 g enantiomer, 50.1 mg/mL in ethanol",31.39 min
same,ln (e.e.),"[2]; 40-g/L in ethanol, time 0 minutes",4.5
same,ln (e.e.),"[2]; 40-g/L in ethanol, time 12 minutes",4.3
same,ln (e.e.),"[2]; 40-g/L in ethanol, time 24 minutes",4.0
same,ln (e.e.),"[2]; 40-g/L in ethanol, time 41 minutes",3.6
same,ln (e.e.),"[2]; 40-g/L in ethanol, time 60 minutes",3.2
same,ln (e.e.),"[2]; 40-g/L in ethanol, time 87 minutes",2.7
same,ln (e.e.),"[2]; 40-g/L in ethanol, time 105 minutes",2.2
same,ln (e.e.),"[2]; 40-g/L in ethanol, time 135 minutes",1.6
same,ln (e.e.),"[2]; 40-g/L in ethanol, time 162 minutes",1.1
CCc1cc(OC(F)(F)F)cc2c1O[C@@H](C(F)(F)F)C(C(=O)O)=C2 [(R)-8-ethyl-6-trifluoromethoxy-2-trifluoromethyl-2H-chromene-3-carboxylic acid],ln (e.e.),[2]; [3],about 4.3
same,ln (e.e.),"[2]; 10-g in 400 mL ethanol, 25-mg/mL, t=95 minutes",about 1.4
"Cc1cc(C)c2c(c1)C=C(C(=O)O)[C@H](C(F)(F)F)O2 [(R)-6,8-dimethyl-2-trifluoromethyl-2H-chromene-3-carboxylic acid]",ln (e.e.),[2]; [3],about 4.2
same,ln (e.e.),"[2]; 10-g in 400 mL ethanol, 25-mg/mL, t=105 minutes",about 1.0
